Assays:
[1] = test system: normal volunteers; experiment: APD125 Phase 1 trials / afternoon nap model of insomnia in normal volunteers; assay type: in vivo, human
Source text: APD125, a potent and selective 5-HT2A serotonin receptor inverse agonist is a member of the genus disclosed in the European Patent EP1558582. […] These effects occurred at the expense of REM sleep. Sleep onset latency was not decreased by APD125.

[2] = test system: diabetic rats; details: cited from earlier work
[3] = target: human 5-HT2A serotonin receptor (Homo sapiens (Human), UniProt P28223); details: 0.5 nM [125I]DOI, COS7 membranes with recombinant human 5-HT2A; read-out: IC50 DOI Binding Assay
[4] = test system: DOI-induced hypolocomotion in rats; experiment: Attenuation of DOI-induced hypolocomotion in rats; assay type: in vivo, rat; details: male Sprague-Dawley rats, compound 1-10 mg/kg p.o., DOI 1 mg/kg s.c.
Experimental: In this example, compounds of the invention were tested for inverse agonist activity by determining whether these compounds could attenuate DOI-induced hypolocomotion in rats in a novel environment. DOI is a potent 5-HT2A/2C receptor agonist that crosses the blood-brain barrier. The standard protocol used is described briefly below.
Male Sprague-Dawley rats weighing between 200-350 g were used for all tests. Rats were housed three to four per cage.
(R)-DOI HCl (C11H16INO2.HCl) was obtained from Sigma-Aldrich and was dissolved in 0.9% saline. Compounds of the invention were synthesized at Arena Pharmaceuticals Inc., San Diego, Calif. and were dissolved in 100% PEG400. DOI was injected s.c. in a volume of 1 mL/kg, while compounds of the invention were administered p.o. in a volume of 1 mL/kg.
The “Motor Monitor” (Hamilton-Kinder, Poway, Calif.) was used for all activity measurement. This apparatus recorded rears using infrared photobeams. […]
In determining the effects of compounds of the invention on DOI-induced hypoactivity, animals were first injected with vehicle or the compound of the invention (1-10 mg/kg) in their home cages. […] Ten minutes after DOI administration, animals were placed into the activity apparatus and rearing activity was measured for 10 min.
Results (total rears over 10 min) were analyzed by t-test. […]

[5] = test system: DOCA-salt induced hypertension in rats; details: cited from earlier work
[6] = test system: glaucoma patients; details: cited from earlier work
[7] = test system: JC virus; details: cited from earlier work
[8] = test system: heatstroke; details: in vivo; cited from earlier work
[9] = test system: spontaneously hypertensive rats; details: cited from earlier work
[10] = test system: diabetic nephropathy; details: patients, 24 months of treatment; cited from earlier work
[11] = test system: rats; details: thermal induced pain i.p., inflammatory pain intrathecal or i.p.; cited from earlier work
[12] = test system: humans; details: sciatica from lumbar disc herniation; cited from earlier work

For `COc1ccc(NC(=O)Nc2ccc(F)cc2F)cc1-c1c(Br)cnn1C` [APD125], which “effect on waking EEG” value ([1]; Phase 1 trials, maximal effects at 40-80 mg) is on record?
The value was “vigilance-lowering effects”.

What about the “microarousals, sleep stage shifts and awakenings after sleep onset” value ([1]; afternoon nap model) of the same molecule?
The value was “decreased microarousals, the number of sleep stage shifts and number of awakenings after sleep onset”.

And the “slow wave sleep and associated parameters” value ([1]; afternoon nap model of insomnia, normal volunteers)?
The value was “increased slow wave sleep and associated parameters in a dose-dependent manner”.

What about the sleep onset latency ([1]; afternoon nap model, normal volunteers) of the same molecule?
Its sleep onset latency is “not decreased”.

For `O=CN1CCC(C(=O)NCCN2CCC(=C3c4ccccc4C=Cc4ccccc43)CC2)CC1` [AT-1015], which “correction of a 19.8% sciatic motor conduction deficit” value [2] is on record?
The value was 82.6-99.7%.

Which IC50 [3] does the source give for `O=C(c1cccn2cc(-c3ccccc3)nc12)N1CCN(CCc2ccc(F)cc2)CC1` [Compound 9, (4-(4-Fluorophenethyl)piperazin-1-yl)(2-phenylimidazo[1,2-α]pyridin-8-yl)methanone] here?
Its IC50 is 46 nM.

For `O=C(c1cccn2ccnc12)N1CCN(CC(F)c2ccc(F)cc2)CC1` (stereo not drawn) [Compound 10, (4-(2-Fluoro-2-(4-fluorophenyl)ethyl)piperazin-1-yl)(imidazo[1,2-α]pyridin-8-yl)methanone], which IC50 [3] is on record?
Its IC50 is 10 nM.

With `O=C(c1cccn2ccnc12)N1CCN(CCc2ccccc2F)CC1` [Compound 18, (4-(2-Fluorophenethyl)piperazin-1-yl)(imidazo[1,2-α]pyridin-8-yl)methanone] as the molecule, how does the “attenuation of DOI-induced hypolocomotion (total rears over 10 min)” value [4] read?
The value was “attenuated DOI-induced hypolocomotion”.

Which “attenuation of DOI-induced hypolocomotion (total rears over 10 min)” value [4] does the source give for `O=C(c1cccn2ccnc12)N1CCN(CCc2ccc(Cl)cc2Cl)CC1` [Compound 19, (4-(2,4-Dichlorophenethyl)piperazin-1-yl)(imidazo[1,2-α]pyridin-8-yl)methanone] here?
Its value is “attenuated DOI-induced hypolocomotion”.

Which DOCA-salt induced hypertension [5] does the source give for `CN1CCN2c3ccccc3Cc3ccccc3C2C1` (stereo not drawn) [Mainserin] here?
The DOCA-salt induced hypertension was “prevent DOCA-salt induced hypertension”.

For `O=C(c1ccc(F)cc1)C1CCN(CCn2c(=O)[nH]c3ccccc3c2=O)CC1` [ketanserin], which “intra ocular pressure (IOP)” value [6] is on record?
The value was “significantly lower IOP”.

And the “JC virus infection of human glial cells” value [7]?
Its value is “inhibited JC virus infection of human glial cells”.

And the protection during heatstroke [8]?
Its protection during heatstroke is “protect against circulatory shocks, intracranial hypertension and cerebral ischemia during heatstroke”.

And the blood pressure [9]?
Its blood pressure is “stabilize blood pressure”.

Which “JC virus infection of human glial cells” value [7] does the source give for `Cc1nc2sccn2c(=O)c1CCN1CCC(=C(c2ccc(F)cc2)c2ccc(F)cc2)CC1` [ritanserin] here?
The value was “inhibited JC virus infection of human glial cells”.

And the “correction of a 19.8% sciatic motor conduction deficit” value [2]?
The value was 82.6-99.7%.

Which “urinary albumin excretion level” value [10] does the source give for `COc1cccc(CCc2ccccc2OCC(CN(C)C)OC(=O)CCC(=O)O)c1` (stereo not drawn) [sarpogrelate] here?
Its value is “significantly reduced”.

And the analgesic effect [11]?
Its analgesic effect is “significant analgesic effect”.

What about the “intra ocular pressure (IOP)” value [6] of the same molecule?
Its value is “significantly lower IOP”.

And the “treatment of lower back pain, leg pain and numbness” value [12]?
The value was “effective treatment”.

And the “correction of a 19.8% sciatic motor conduction deficit” value [2]?
The value was 82.6-99.7%.
